Test results as given in patent US12636270B2, “Levothyroxine liquid formulations” (Fresenius Kabi USA, LLC, priority 2016, dated 2026).
Read-outs that look alike come from different tables or passages of the source.

Legend:
[1] = 4 W, 20 mcg/mL, tromethamine 10 mg/mL, 5.4 mg/mL sodium chloride in water
Protocol: (§1) Separate samples containing 20 mcg/mL levothyroxine sodium, 10 mg/mL tromethamine, 5.4 mg/mL sodium chloride, and sodium iodide at a concentration of 280 mcg/mL, 140 mcg/mL, or 6 mcg/mL in water were adjusted to various pH levels. 5 mL of each sample was filled into 10 cc flint molded vials, and the vials were stoppered with 20 mm stoppers under nitrogen.
The HPLC conditions were as follows: • Column: ACE Excel 3 C18-PFP, 4.6×150 mm HPLC column • Mobile Phase A: Sodium heptanesulfonate/Acetonitrile/Water/Methanol/H3PO4 (4.0 g/800 mL/1600 mL/1600 mL/4.0 mL) • Mobile Phase B: Sodium heptanesulfonate/Acetonitrile/Water/Methanol/H3PO4 (4.0 g/2000 mL/200 mL/1800 mL/4.0 mL) • Diluent: 0.01 N NaOH • Column temperature: 25° C. • Flow rate: 1.5 mL/min • Injection volume: 80 μL • Autosampler temperature: 5° C. • Detection: UV at 225 nm • Separation mode: Gradient Gradient Program: […]

[2] = 20 mcg/mL, tromethamine 10 mg/mL, 5.4 mg/mL sodium chloride in water
Protocol: as §1
The samples also were stored at temperatures of 25° C. or 40° C. for 2M or 4M prior to analysis by HPLC.
The HPLC conditions were as follows: • Column: Phenomenex Kinetex 2.6 μm C18, 4.6×150 mm HPLC column • Mobile Phase A: 0.05 M Sulfamic Acid, pH 2.0 • Mobile Phase B: Acetonitrile • Diluent: 10% Mobile Phase A in Methanol: Acetonitrile: Mobile Phase A (1000 mL: 300 mL: 700 mL) • Column temperature: 27° C. • Flow rate: 1.2 mL/min • Injection volume: 50 μL • Autosampler temperature: 25° C. • Detection: UV at 225 nm • Separation mode: Gradient Gradient Program: […]

[3] = 25° C., NaI 140 mcg/mL, pH 10.5
[4] = 25° C., NaI 280 mcg/mL, pH 10.5
[5] = 55° C., NaI 140 mcg/mL, pH 10.5
[6] = 55° C., NaI 280 mcg/mL, pH 10.5
[7] = 25° C., 2 M, NaI 6 mcg/mL, pH 10.5
[8] = 25° C., 2 M, NaI 140 mcg/mL, pH 9.5
[9] = 25° C., 2 M, NaI 140 mcg/mL, pH 10
[10] = 25° C., 2 M, NaI 140 mcg/mL, pH 10.5
[11] = 25° C., 2 M, NaI 280 mcg/mL, pH 9.5
[12] = 25° C., 2 M, NaI 280 mcg/mL, pH 10
[13] = 25° C., 2 M, NaI 280 mcg/mL, pH 10.5
[14] = 25° C., 4 M, NaI 6 mcg/mL, pH 10.5
[15] = 25° C., 4 M, NaI 140 mcg/mL, pH 9.5
[16] = 25° C., 4 M, NaI 140 mcg/mL, pH 10
[17] = 25° C., 4 M, NaI 140 mcg/mL, pH 10.5
[18] = 25° C., 4 M, NaI 280 mcg/mL, pH 9.5
[19] = 25° C., 4 M, NaI 280 mcg/mL, pH 10
[20] = 25° C., 4 M, NaI 280 mcg/mL, pH 10.5
[21] = 40° C., 2 M, NaI 6 mcg/mL, pH 10.5
[22] = 40° C., 2 M, NaI 140 mcg/mL, pH 9.5
[23] = 40° C., 2 M, NaI 140 mcg/mL, pH 10
[24] = 40° C., 2 M, NaI 140 mcg/mL, pH 10.5
[25] = 40° C., 2 M, NaI 280 mcg/mL, pH 9.5
[26] = 40° C., 2 M, NaI 280 mcg/mL, pH 10
[27] = 40° C., 2 M, NaI 280 mcg/mL, pH 10.5
[28] = 40° C., 4 M, NaI 6 mcg/mL, pH 10.5
[29] = 40° C., 4 M, NaI 140 mcg/mL, pH 9.5
[30] = 40° C., 4 M, NaI 140 mcg/mL, pH 10
[31] = 40° C., 4 M, NaI 140 mcg/mL, pH 10.5
[32] = 40° C., 4 M, NaI 280 mcg/mL, pH 9.5
[33] = 40° C., 4 M, NaI 280 mcg/mL, pH 10
[34] = 40° C., 4 M, NaI 280 mcg/mL, pH 10.5

N[C@@H](Cc1cc(I)c(Oc2cc(I)c(O)c(I)c2)c(I)c1)C(=O)[O-].[Na+] [Levothyroxine Na, 4-(4-hydroxy-3,5-diiodophenoxy)-3,5-diiodo-L-phenylalanine sodium]
% AOII ([1]; 25° C., NaI 6 mcg/mL, pH 10.5): 0.33%
% total impurities ([1]; 25° C., NaI 6 mcg/mL, pH 10.5): 1.9%
% AOII ([1]; 25° C., NaI 140 mcg/mL, pH 9.5): 0.52%
% total impurities ([1]; 25° C., NaI 140 mcg/mL, pH 9.5): 1.51%
% AOII ([1]; 25° C., NaI 140 mcg/mL, pH 10): 0.55%
% total impurities ([1]; 25° C., NaI 140 mcg/mL, pH 10): 1.64%
% AOII [1, 3]: 0.6%
% total impurities [1, 3]: 1.75%
% AOII ([1]; 25° C., NaI 280 mcg/mL, pH 9.5): 0.56%
% total impurities ([1]; 25° C., NaI 280 mcg/mL, pH 9.5): 1.58%
% AOII ([1]; 25° C., NaI 280 mcg/mL, pH 10): 0.55%
% total impurities ([1]; 25° C., NaI 280 mcg/mL, pH 10): 1.61%
% AOII [1, 4]: 0.57%
% total impurities [1, 4]: 1.66%
% AOII ([1]; 55° C., NaI 6 mcg/mL, pH 10.5): 0.99%
% total impurities ([1]; 55° C., NaI 6 mcg/mL, pH 10.5): 3.5%
% AOII ([1]; 55° C., NaI 140 mcg/mL, pH 9.5): 0.59%
% total impurities ([1]; 55° C., NaI 140 mcg/mL, pH 9.5): 3.6%
% AOII ([1]; 55° C., NaI 140 mcg/mL, pH 10): 0.61%
% total impurities ([1]; 55° C., NaI 140 mcg/mL, pH 10): 2.86%
% AOII [1, 5]: 0.53%
% total impurities [1, 5]: 2.49%
% AOII ([1]; 55° C., NaI 280 mcg/mL, pH 9.5): 0.53%
% total impurities ([1]; 55° C., NaI 280 mcg/mL, pH 9.5): 3.24%
% AOII ([1]; 55° C., NaI 280 mcg/mL, pH 10): 0.54%
% total impurities ([1]; 55° C., NaI 280 mcg/mL, pH 10): 2.76%
% AOII [1, 6]: 0.53%
% total impurities [1, 6]: 2.43%
% AOII [2, 7]: 0.46%
% total impurities [2, 7]: 1.85%
% AOII [2, 8]: 0.09%
% Liothyronine [2, 8]: 0.29%
% total impurities [2, 8]: 0.76%
% AOII [2, 9]: 0.10%
% total impurities [2, 9]: 0.77%
% AOII [2, 10]: 0.12%
% Liothyronine [2, 10]: 0.24%
% total impurities [2, 10]: 0.88%
% AOII [2, 11]: 0.11%
% total impurities [2, 11]: 0.81%
% AOII [2, 12]: 0.12%
% Liothyronine [2, 12]: 0.24%
% total impurities [2, 12]: 0.8%
% AOII [2, 13]: 0.11%
% Liothyronine [2, 13]: 0.23%
% total impurities [2, 13]: 0.85%
% AOII [2, 14]: 1.21%
% total impurities [2, 14]: 2.81%
% AOII [2, 15]: 0.18%
% Liothyronine [2, 15]: 0.35%
% total impurities [2, 15]: 1.00%
% AOII [2, 16]: 0.17%
% total impurities [2, 16]: 0.93%
% AOII [2, 17]: 0.17%
% total impurities [2, 17]: 0.94%
% AOII [2, 18]: 2.14%
% Liothyronine [2, 18]: 0.35%
% total impurities [2, 18]: 3.26%
% AOII [2, 19]: 0.17%
% total impurities [2, 19]: 0.93%
% AOII [2, 20]: 0.11%
% total impurities [2, 20]: 1.04%
% AOII [2, 21]: 0.91%
% Liothyronine [2, 21]: 0.43%
% total impurities [2, 21]: 2.5%
% AOII [2, 22]: 0.14%
% Liothyronine [2, 22]: 0.88%
% total impurities [2, 22]: 1.42%
% AOII [2, 23]: 0.14%
% Liothyronine [2, 23]: 0.55%
% total impurities [2, 23]: 1.18%
% AOII [2, 24]: 0.15%
% Liothyronine [2, 24]: 0.41%
% total impurities [2, 24]: 1.09%
% AOII [2, 25]: 0.13%
% Liothyronine [2, 25]: 0.9%
% total impurities [2, 25]: 1.56%
% AOII [2, 26]: 0.13%
% Liothyronine [2, 26]: 0.55%
% total impurities [2, 26]: 1.2%
% AOII [2, 27]: 0.17%
% Liothyronine [2, 27]: 0.39%
% total impurities [2, 27]: 1.07%
% AOII [2, 28]: 1.45%
% Liothyronine [2, 28]: 0.6%
% total impurities [2, 28]: 3.51%
% AOII [2, 29]: 0.72%
% Liothyronine [2, 29]: 1.3%
% total impurities [2, 29]: 2.84%
% AOII [2, 30]: 0.92%
% Liothyronine [2, 30]: 0.86%
% total impurities [2, 30]: 2.73%
% AOII [2, 31]: 0.69%
% Liothyronine [2, 31]: 0.59%
% total impurities [2, 31]: 2.14%
% AOII [2, 32]: 0.52%
% Liothyronine [2, 32]: 1.23%
% total impurities [2, 32]: 2.76%
% AOII [2, 33]: 1.38%
% Liothyronine [2, 33]: 0.84%
% total impurities [2, 33]: 3.23%
% AOII [2, 34]: 1.07%
% Liothyronine [2, 34]: 0.58%
% total impurities [2, 34]: 2.72%
